In US11512085B2, “Heteroaryl compound having drug activity” (SHANGHAI DUDE MEDICAL TECHNOLOGY CO., LTD, priority 2017, dated 2022):
Each block holds one compound with its values, some of them ahead of it.

Tests used:
Btk = Btk (Homo sapiens, UniProt Q06187); assay: Determination of Btk enzyme inhibitory activity; type: biochemical; conditions: 2 nM BTK
Protocol: Determination of Btk Enzyme Inhibitory Activity
Buffer solution: 50 mM Hepes pH 7.0, 0.1 mM Orthovanadate, 5 mM MgCl2, 0.01% of BSA;
1 mM TK-peptide, […], 50 nM SEB;
Pre-incubation for 15 minutes;
Reaction at 23° C. for 90 minutes;
Color Development Reaction:
Developing buffer solution: 50 mM Hepes pH8.0, 0.8 M KF, 20 mM EDTA, 0.01% BSA;
Reaction at 23° C. for 60 minutes;

Lck = Lck (Homo sapiens, UniProt P06239); assay: Btk selectivity over Lck (same kinase method, Btk replaced); type: biochemical; conditions: ratio of IC50 values
Protocol: (§1) Other kinases (e.g., inhibitory activity of Lck and LynA is determined by replacing the Btk with various kinases and performing operations the same as that in the above method).

LynA = LynA (Homo sapiens, UniProt P07948); assay: Btk selectivity over LynA (same kinase method, Btk replaced); type: biochemical; conditions: ratio of IC50 values
Protocol: as §1

[1] = Human liver microsome stability test; type: in vitro ADME; conditions: for Remaining (*NCF = 60 min): HLM 0.5, 60 min, no co-factor; for Remaining (T = 60 min): HLM 0.5, 60 min with NADPH regenerating system; for half-life at 1 µM / microsomal CLint at 1 µM / CLint scaled at 1 µM: human, liver microsomes, pH 7.4; for half-life at 1 µM: HLM 0.5 (0.5 mg protein/mL); for microsomal CLint at 1 µM / CLint scaled at 1 µM: HLM 0.5; for microsomal CLint at 1 µM: read-out: CLint(mic); for CLint scaled at 1 µM: scaled from CLint(mic)
Protocol: (§2) Preparation of Buffer Solution:
(§3) 1. 100 mM potassium phosphate buffer solution, pH of 7.4
(§4) Preparation of Test Compound Solution:
(§5) 1. A test compound solution (10 mM, 5 μL) was diluted with a methanol solution (495 μL), and a 100 μM solution was prepared;
(§6) 2. Preparation of a working solution: the above solution (50 μL) was diluted with the potassium phosphate buffer solution (450 μL, 100 mM) so as to obtain diluents (10 μM).
(§7) NADPH Regeneration System (Final Concentration 1 Unit/mL of Isocitrate Dehydrogenase):
(§8) 1. beta-NADP, supplier: sigma Cat. No. N0505
(§9) 3. isocitrate dehydrogenase, supplier: sigma Cat. No. 12002
(§10) Cold acetonitrile containing 100 ng/mL of tolbutamide and 100 ng/mL of labetalol serves as an internal standard
(§11) 1. a 10 μL/well of working solution was added into plates (T0, T5, T10, T20, T30, T60, NCF60) beyond the blank;
(§12) 2. a 80 μL/well of microsome solution was added, and incubation was performed at 37° C. for 10 min;
(§13) 3. a 10 μL of 100 mM phosphate buffer solution was added into each well of an NCF60 plate, the plate was placed in a warm bath at 37° C., and timing started;
(§14) 4. a 10 μL/well of NADPH regeneration system was added after preheating, and a reaction started;
(§15) 5. incubation was performed at 37° C., and timing started
(§16) 6. a 300 μL/well of stop solution was added (4° C., containing 100 ng/mL of tolbutamide and 100 ng/mL of labetalol) to end the reaction;
(§17) 7. the plate was shaken for 10 min;
(§18) 8. centrifugation was performed at 4° C. at a rotation speed of 4000 rpm; and
(§19) 9. sample LC/MS/MS detection was performed.
(§20) Data Analysis Use Equation of First Order Kinetics to Calculate t½ and Clint(Mic): […]
(§21) equation of first order kinetics: […]

[2] = Rat liver microsome stability test; type: in vitro ADME; conditions: for Remaining (*NCF = 60 min): RLM 0.5, 60 min, no co-factor; for Remaining (T = 60 min): RLM 0.5, 60 min with NADPH regenerating system; for half-life at 1 µM / microsomal CLint at 1 µM / CLint scaled at 1 µM: rat, liver microsomes, pH 7.4; for half-life at 1 µM: RLM 0.5 (0.5 mg protein/mL); for microsomal CLint at 1 µM / CLint scaled at 1 µM: RLM 0.5; for microsomal CLint at 1 µM: read-out: CLint(mic); for CLint scaled at 1 µM: scaled from CLint(mic)
Protocol: as §2, §3, §4, §5, §6, §7, §8, §9, §10, §11, §12, §13, §14, §15, §16, §17, §18, §19, §20, §21

[3] = People; FDA data; cited from earlier work

Chain of Btk (Q06187 whole entry): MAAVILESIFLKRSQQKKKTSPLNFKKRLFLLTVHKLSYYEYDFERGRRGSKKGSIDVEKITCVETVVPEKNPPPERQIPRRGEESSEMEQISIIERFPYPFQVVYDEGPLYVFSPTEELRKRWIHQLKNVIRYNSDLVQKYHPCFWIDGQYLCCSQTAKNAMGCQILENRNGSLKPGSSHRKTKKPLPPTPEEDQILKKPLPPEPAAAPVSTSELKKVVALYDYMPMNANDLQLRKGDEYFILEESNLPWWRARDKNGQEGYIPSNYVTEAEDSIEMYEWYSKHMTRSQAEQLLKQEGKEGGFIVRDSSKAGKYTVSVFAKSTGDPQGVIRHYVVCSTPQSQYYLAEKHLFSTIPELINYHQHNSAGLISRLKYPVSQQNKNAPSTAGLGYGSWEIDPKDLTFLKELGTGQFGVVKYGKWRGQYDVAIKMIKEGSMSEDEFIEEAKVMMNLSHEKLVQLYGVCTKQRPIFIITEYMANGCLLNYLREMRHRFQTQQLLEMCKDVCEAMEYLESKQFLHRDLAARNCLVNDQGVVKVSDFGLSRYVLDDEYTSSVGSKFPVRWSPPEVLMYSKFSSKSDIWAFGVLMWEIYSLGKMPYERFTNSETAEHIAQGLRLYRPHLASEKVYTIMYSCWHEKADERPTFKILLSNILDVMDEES
Chain of LynA (P07948 whole entry): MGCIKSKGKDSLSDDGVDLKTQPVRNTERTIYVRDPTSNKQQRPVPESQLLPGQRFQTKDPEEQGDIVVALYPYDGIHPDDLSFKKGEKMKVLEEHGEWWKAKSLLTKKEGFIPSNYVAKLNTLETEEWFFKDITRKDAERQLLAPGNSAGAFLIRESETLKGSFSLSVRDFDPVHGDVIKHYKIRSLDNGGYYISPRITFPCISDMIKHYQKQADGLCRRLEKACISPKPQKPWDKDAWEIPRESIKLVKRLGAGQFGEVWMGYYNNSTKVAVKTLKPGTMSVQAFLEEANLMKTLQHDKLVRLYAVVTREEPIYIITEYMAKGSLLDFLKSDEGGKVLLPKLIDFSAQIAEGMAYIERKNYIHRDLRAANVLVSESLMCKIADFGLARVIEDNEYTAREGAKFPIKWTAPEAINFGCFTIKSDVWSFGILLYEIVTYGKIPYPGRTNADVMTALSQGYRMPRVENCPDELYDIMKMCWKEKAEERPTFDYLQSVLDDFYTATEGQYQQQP
Chain of Lck (P06239 whole entry): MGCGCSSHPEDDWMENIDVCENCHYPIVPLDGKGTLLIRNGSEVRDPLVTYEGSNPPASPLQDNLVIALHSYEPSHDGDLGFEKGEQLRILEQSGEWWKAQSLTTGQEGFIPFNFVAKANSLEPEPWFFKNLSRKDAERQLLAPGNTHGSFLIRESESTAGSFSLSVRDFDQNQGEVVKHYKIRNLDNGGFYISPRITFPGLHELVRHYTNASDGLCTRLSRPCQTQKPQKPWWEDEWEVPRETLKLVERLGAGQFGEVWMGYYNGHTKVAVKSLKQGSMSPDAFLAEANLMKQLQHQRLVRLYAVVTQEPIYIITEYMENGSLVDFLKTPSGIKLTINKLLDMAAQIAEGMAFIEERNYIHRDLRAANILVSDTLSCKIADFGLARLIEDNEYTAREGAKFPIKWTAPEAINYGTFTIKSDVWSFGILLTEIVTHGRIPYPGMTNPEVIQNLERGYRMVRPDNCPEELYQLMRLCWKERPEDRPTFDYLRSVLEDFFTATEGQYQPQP

SMILES: C=CC(=O)NN1CCCC(n2c(=O)n(-c3ccc(Oc4ccccc4)cc3)c3c(N)ncnc32)C1 (stereo not shown) [Embodiment 29]
IC50 (Btk): > 1000 nM

SMILES: C=CC(=O)N(C)N1CCCC(n2nc(-c3ccc(Oc4ccccc4)cc3)c3c(N)ncnc32)C1 (stereo not shown) [Embodiment 8]
Lck[IC50]/Btk[IC50] (Lck): 139
LynA[IC50]/Btk[IC50] (LynA): 62.5
Remaining (*NCF = 60 min) [1]: 105.8%
Remaining (T = 60 min) [1]: 0.0%
half-life at 1 µM [1]: 3.7 min
microsomal CLint at 1 µM [1]: 374 µL/min/mg
CLint scaled at 1 µM [1]: 336 mL/min/kg
Remaining (*NCF = 60 min) [2]: 111.2%
Remaining (T = 60 min) [2]: 0.2%
half-life at 1 µM [2]: 3.8 min
microsomal CLint at 1 µM [2]: 366 µL/min/mg
CLint scaled at 1 µM [2]: 658 mL/min/kg

SMILES: C=CC(=O)NN1CCCC(c2nc(-c3ccc(Oc4ccccc4)cc3)c3c(N)nccn23)C1 (stereo not shown) [Embodiment 51, N-(3-(8-amino-1-(4-phenoxyphenyl)imidazo[1,5-a]pyrazine-3-yl)-1-piperidyl) acrylamide]
IC50 (Btk): 5.1 nM

SMILES: C=CC(=O)NN1CCC[C@@H](n2nc(-c3ccc(Oc4ccccc4F)cc3)c3c(N)ncnc32)C1 [Embodiment 42]
IC50 (Btk): 0.9 nM

SMILES: C=CC(=O)N1CCC[C@@H](n2nc(-c3ccc(Oc4ccccc4)cc3)c3c(N)ncnc32)C1 [Ibrutinib]
bioavailability [3]: 2.9%

SMILES: C=CC(=O)NN1CCC[C@@H](n2c(=O)n(-c3ccc(C(=O)Nc4ccccn4)cc3)c3c(N)ncnc32)C1 [Embodiment 40, 4-(9-(1-acrylamidepiperidine-3-yl)-6-amino-8-oxo-8,9-dihydro-7H-purine-7-yl)-N-(pyridin-2-yl)benzamide]
IC50 (Btk): 23 nM

SMILES: C=CC(=O)N(C)N1CCC[C@@H](n2c(=O)n(-c3ccc(Oc4ccccc4)cc3)c3c(N)ncnc32)C1 [Embodiment 30]
IC50 (Btk): 76.8 nM

SMILES: C=CC(=O)N1CCC[C@@H](n2c(=O)n(-c3ccc(-c4noc(CCCCl)n4)cc3)c3c(N)ncnc32)C1 [Embodiment 36, 9-(1-allylpropionylpiperidine-3-yl)-6-amino-7-(4-(5-(3-chloropropyl)-1,2,4-oxadiazole-3-yl)phenyl)-7,9-dihydro-8H-purine-8-one]
IC50 (Btk): > 1000 nM

Second part, the compound after the results:

IC50 (Btk): 145 nM
SMILES: C=CC(=O)N1CCC[C@@H](n2nc(-c3ccc(-c4noc(C)n4)cc3)c3c(N)ncnc32)C1 [Embodiment 22, 1-(3-(4-amino-3-(4-(5-methyl-1,2,4-oxadiazole-3-yl)phenyl)-1H-pyrazolo[3,4-D]pyrimidine-1-yl)-1-piperidyl)-2-propylene-1-one]

IC50 (Btk): 209 nM
SMILES: C=CC(=O)N1CCCC(n2c(=O)n(-c3ccc(-c4noc(C)n4)cc3)c3c(N)ncnc32)C1 (stereo not shown) [Embodiment 34, 9-(1-allylpropionylpiperidine-3-yl)-6-amino-7-(4-(5-methyl-1,2,4-oxadiazole-3-yl)phenyl)-7,9-dihydro-8H-purine-8-one]

IC50 (Btk): 5.82 nM
SMILES: C=CC(=O)N1CCC[C@@H](n2nc(/C=C/c3ccc(Cl)cc3)c3c(N)ncnc32)C1 [Embodiment 14, 1-(3-(4-amino-3-(4-chlorophenylvinyl)-1H-pyrazolo[3,4-D]pyrimidine-1-yl)-piperidyl)-2-propylene-1-one]

IC50 (Btk): 6.9 nM
SMILES: C=CC(=O)N1CCC[C@@H](n2nc(/C=C/c3cccc(Cl)c3)c3c(N)ncnc32)C1 [Embodiment 15, 1-(3-(4-amino-3-(3-chlorophenylvinyl)-1H-pyrazolo[3,4-D]pyrimidine-1-yl)-piperidyl)-2-propylene-1-one]

IC50 (Btk): 176 nM
SMILES: C=CC(=O)N1CCCC(n2c(=O)n(-c3ccc(-c4noc(C=C)n4)cc3)c3c(N)ncnc32)C1 (stereo not shown) [Embodiment 35, 9-(1-allylpropionylpiperidine-3-yl)-6-amino-7-(4-(5-vinyl-1,2,4-oxadiazole-3-yl)phenyl)-7,9-dihydro-8H-purine-8-one]

IC50 (Btk): 0.46 nM
Lck[IC50]/Btk[IC50] (Lck): 420
LynA[IC50]/Btk[IC50] (LynA): 507
Remaining (*NCF = 60 min) [1]: 93.1%
Remaining (T = 60 min) [1]: 14.0%
half-life at 1 µM [1]: 20.5 min
microsomal CLint at 1 µM [1]: 67.6 µL/min/mg
CLint scaled at 1 µM [1]: 60.8 mL/min/kg
Remaining (*NCF = 60 min) [2]: 94.7%
Remaining (T = 60 min) [2]: 5.0%
half-life at 1 µM [2]: 13.7 min
microsomal CLint at 1 µM [2]: 101 µL/min/mg
CLint scaled at 1 µM [2]: 182 mL/min/kg
SMILES: C=CC(=O)N1CCCC(n2nc(/C=C/c3ccccn3)c3c(N)ncnc32)C1 (stereo not shown) [Embodiment 13, 1-(3-(4-amino-3-(2-2-pyridyl)vinyl-1H-pyrazolo[3,4-D]pyrimidine-1-yl)-piperidyl)-2-propylene-1-one]

IC50 (Btk): 0.64 nM
SMILES: C=CC(=O)N(C)N1CCC[C@@H](n2nc(-c3ccc(Oc4ccccc4)cc3)c3c(N)ncnc32)C1 [Embodiment 8]

IC50 (Btk): 16.7 nM
SMILES: C=CC(=O)N1CCCC(n2nc(/C=C/c3ccccc3Cl)c3c(N)ncnc32)C1 (stereo not shown) [Embodiment 16, 1-(3-(4-amino-3-(2-chlorophenylvinyl)-1H-pyrazolo[3,4-D]pyrimidine-1-yl)-piperidyl)-2-propylene-1-one]

IC50 (Btk): 78 nM
SMILES: C=CC(=O)N1CCC[C@@H](n2nc(-c3ccc(-c4noc(CCCCl)n4)cc3)c3c(N)ncnc32)C1 [Embodiment 24, 1-(3-(4-amino-3-(4-(5-(3-chloropropyl)-1,2,4-oxadiazole-3-yl)phenyl)-1H-pyrazolo[3,4-D]pyrimidine-1-yl)-1-piperidyl)-2-propylene-1-one]
